Test results as given in patent publication US4948797A, “2,2-disubstitued 2,3-dihydro-1,4-benzodioxin derivatives having hypotensive activity” (Istituto Luso Farmaco d'Italia S.p.A., priority 1988, dated 1990).

What was measured:
α2 receptors = assay: in vitro action on the α2 receptors, determined in respect of [^3 H]-Clonidine; assay type: binding
Description: (§1) Bremner, Eur. J. Pharmacol 55, 323 (1979) and D. C. U. Prichard et al, Mol. Pharmacol 13, 454 (1977), while in vivo they seem to have a low toxicity and a good and durable anti-hypertensive activity, determined in the SHR rat by oral route, with the method reported by J Pfeffer et al, J. Lab. Clin. Med. 78, 957 (1971).

SHR rat = assay: anti-hypertensive activity in the SHR rat by oral route (with heart rate); assay type: in vivo
Description: as §1

α1 receptors = assay: in vitro affinity for the α1 receptors, determined in respect of [^3 H]-Prazosin; assay type: binding
Description: as §1

[1] = toxicity, expressed as LD50, oral; settings: in vivo

Structure (SMILES) | IC50 (α2 receptors) | effect on heart rate (SHR rat; 30 mg/kg/os dosage) | reduction in the pressure (SHR rat; SHR rat, 30 mg/kg/os dosage) | IC50 (α1 receptors) | LD50 [1] | effect on heart rate (SHR rat; 20 mg/kg/os dosage) | reduction of the pressure (SHR rat; SHR rat, 20 mg/kg/os dosage)
COc1cc2nc(N3CCN(CC(O)C4(C)COc5ccccc5O4)CC3)nc(N)c2cc1OC.Cl (stereo not shown) [1-(4-amino-6,7-dimethoxyquinazolin-2-yl)-4-[2-(2,3-dihydro-2-methyl-1,4-benzodioxin-2-yl)-2-hydroxyethyl]-piperazine hydrochloride] | > 10000 nM | without significantly modifying the heart rate | 20% | 3.6 nM | > 2000 mg/kg |  | 
CC1(C(O)CN2CCC(n3c(=O)[nH]c4ccccc43)CC2)COc2ccccc2O1 (racemic) [1-[2-(2,3-dihydro-2-methyl-1,4-benzodioxin-2-yl)-2-hydroxy-ethyl]-4-piperidinyl]-1,3-dihydro-2H-benzimidazol-2-one] | 18000 nM |  |  | 55 nM | ~1000 mg/kg | without significantly varying the heart rate | 21%
